The values that follow are results of earlier work, collected in patent US20210205254A1, “OMEGA-3 PENTAENOIC ACID COMPOSITIONS AND METHODS OF USE” (Matinas BioPharma, Inc., priority 2012, published 2021).

For the data set the following is noted: in vivo.

For the compound `CC(C)n1c(/C=C/C(O)CC(O)CC(=O)O)c(-c2ccc(F)cc2)c2ccccc21` (centres unmarked) [fluvastatin], the bioavailable entry is on record as “approximately 24%”.

Regarding `CC[C@H](C)C(=O)O[C@H]1C[C@@H](C)C=C2C=C[C@H](C)[C@H](CC[C@@H]3C[C@@H](O)CC(=O)O3)[C@H]21` [lovastatin], the “absorbed (rate)” value was “about 30%”.
